Data as given in patent US8933022B2, “Methods and compositions for the treatment and prevention Hypoglycemia and related disorders” (JDS Therapeutics, LLC, priority 2011, dated 2015).
Marks after values point to notes of the source that are not given here.

Experiments:
[1] = test system: GLUT-3; assay: Brain GLUT-3 expression in insulin-induced hypoglycemic rats; details: 15 U insulin/kg i.p., 110 μg/kg/day, one week, mean ± s.d.
Description: (§1) In order to evaluate chromium's potential protective effects preventing insulin-induced hypoglycemia, animals were administered insulin to induce hypoglycemia, and markers of hypoglycemic brain damage were compared in animals with and without administration of chromium.
(§2) Briefly, hypoglycemia was induced in Sprague-Dawley rats (males, 8-weeks old) by intraperitoneal injection of 15 U insulin/kg BW. The rats were separated into four groups of 15 rats each: (1) a control group not receiving insulin (“Control”); (2) a group not administered chromium (“Hypo”); (3) a group administered 110 μg/kg/day of chromium picolinate (CrPic); and, a group administered 110 μg/kg/day of chromium histidinate (CrHis). After one week of dosing, brains were removed from the sacrificed rats and analyzed for markers of hypoglycemic damage: GLUT-1; GLUT-3; Nrf2; GFAP; and HNE.

[2] = Serum glucose 0.5 hrs after insulin injection in insulin-induced hypoglycemic rats; assay type: in vivo, Sprague-Dawley rats; details: 15 U insulin/kg i.p., 110 μg/kg/day chromium complex, one week, mean ± s.d.
[3] = test system: OCT-2; assay: Kidney OCT-2 levels in type-1 diabetes induced rats; assay type: in vivo, Wistar rats; details: bands, STZ rats, n = 7; control = 100.00
[4] = test system: Serotonin; assay: Brain serotonin in type-1 diabetes induced rats; assay type: in vivo, Wistar rats; parameters: unit not given here; details: STZ rats, n = 7; footnote: daily for 8 weeks
[5] = Brain chromium levels in insulin-induced hypoglycemic rats; details: 15 U insulin/kg i.p., 110 μg/kg/day, one week, mean ± s.d.
Description: as §1, §2

[6] = test system: insulin; assay: Brain insulin levels in type-1 diabetes induced rats; assay type: in vivo, Wistar rats; details: bands, STZ rats, n = 7; control = 100.00
Description: (§3) Forty-two Wistar rats were assigned to one of 6 experimental groups: 1) positive control: rats injected with saline 2) type-1 diabetes group: rats injected with streptozotocin (STZ, 65 mg/kg i.p.) to damage beta cells (n=35). Diabetic rats were then administered with a) none, b) Zn alone (6.23 μg ZnO), c) Cr alone (47.7 μg Cr-histidinate), d) Zn-insulin (6.23 μg ZnO+3 IU Ins/100 g BW), or e) Cr-insulin (47.7 μg Cr-histidinate+3 IU Ins/100 g BW), daily for 26 days (n=7 per subgroup). Body weights were measured at the beginning and end of the experiment.
(§4) Blood samples were collected on days—2 (beginning), 0 (induction), 4, 6, 12, and 26 for blood biochemistry. At the end of the experiment, rats were sacrificed for brain tissue GLUTs (1 and 3). Data were analyzed using one-way ANOVA with LSD option for mean comparison.

[7] = test system: OCT-1 (organic cation transporter 1); assay: Kidney OCT-1 levels in type-1 diabetes induced rats; assay type: in vivo, Wistar rats; details: bands, STZ rats, n = 7; control = 100.00 (percentage of control)
[8] = Body weight of type-1 diabetes induced rats (Example 8); assay type: in vivo, Wistar rats; details: Example 8, STZ rats, n = 7; for Initial BW: before treatment; for BW Change / Final BW: daily for 26 days
Description: as §3, §4

[9] = test system: HNE; assay: Hippocampus HNE expression in insulin-induced hypoglycemic rats; details: 15 U insulin/kg i.p., 110 μg/kg/day, one week, mean ± s.d.
Description: as §1, §2

[10] = test system: GLUT-1; assay: Brain GLUT-1 expression in insulin-induced hypoglycemic rats; details: 15 U insulin/kg i.p., 110 μg/kg/day, one week, mean ± s.d.
Description: as §1, §2

[11] = test system: NFK (nuclear factor kappa B); assay: Brain NFK levels in type-1 diabetes induced rats; assay type: in vivo, Wistar rats; details: bands, STZ rats, n = 7; control = 100.00
Description: as §3, §4

[12] = test system: Tryptophan; assay: Brain tryptophan in type-1 diabetes induced rats; assay type: in vivo, Wistar rats; details: STZ rats, n = 7; footnote: daily for 8 weeks
[13] = test system: Nrf2; assay: Hippocampus Nrf2 expression in insulin-induced hypoglycemic rats; details: 15 U insulin/kg i.p., 110 μg/kg/day, one week, mean ± s.d.
Description: as §1, §2

[14] = test system: GLUT-3; assay: Cerebral GLUT-3 expression in type-1 diabetes induced rats; assay type: in vivo, Wistar rats; details: STZ rats, daily for 26 days; control = 100.00
Description: Forty-two Wistar rats were assigned to one of 6 experimental groups: 1) positive control: rats injected with saline 2) type-1 diabetes group: rats injected with streptozotocin (STZ, 65 mg/kg i.p.) to damage beta cells (n=35). Diabetic rats were then administered with a) none, b) Zn alone (6.23 μg ZnO), c) Cr alone (47.7 μg Cr-histidinate), d) Zn-insulin (6.23 μg ZnO+3 IU Ins/100 g BW), or e) Cr-insulin (47.7 μg Cr-histidinate+3 IU Ins/100 g BW), daily for 26 days (n=7 per subgroup).
At the end of the experiment, rats were sacrificed for brain tissue GLUTs (1 and 3). Data were analyzed using one-way ANOVA with LSD option for mean comparison.

[15] = test system: NFK (nuclear factor kappa B); assay: Kidney NFK levels in type-1 diabetes induced rats; assay type: in vivo, Wistar rats; details: bands, STZ rats, n = 7; control = 100.00
[16] = Glucose pattern before and after injection in type-1 diabetes induced rats; assay type: in vivo, Wistar rats; details: STZ rats; for Glucose, Day 4, After / Glucose, Day 6, After / Glucose, Day 12, After / Glucose, Day 21, After: after injection; for Glucose, Day 4, After / Glucose, Day 4, Before: no unit in table (mg/dl); for Glucose, Day 6, After / Glucose, Day 12, After / Glucose, Day 21, After / Glucose, Day 6, Before / Glucose, Day 12, Before / Glucose, Day 21, Before: no unit in table; for Glucose, Day 4, Before / Glucose, Day 6, Before / Glucose, Day 12, Before / Glucose, Day 21, Before: before injection
Description: as §3, §4

[17] = Blood biochemistry of type-1 diabetes induced rats at the end of the experiment; assay type: in vivo, Wistar rats; details: STZ rats, daily for 26 days
Description: as §3, §4

[18] = Serum and brain chromium in type-1 diabetes induced rats; details: STZ rats, n = 7; footnote: daily for 8 weeks
Description: as §3, §4

[19] = test system: GLUT-1; assay: Cerebral GLUT-1 expression in type-1 diabetes induced rats; assay type: in vivo, Wistar rats; details: STZ rats, daily for 26 days; control = 100.00
Description: as §3, §4

[20] = test system: GFAP; assay: Hippocampus GFAP expression in insulin-induced hypoglycemic rats; details: 15 U insulin/kg i.p., 110 μg/kg/day, one week, mean ± s.d.
Description: as §1, §2

[21] = test system: MRP2 (multidrug resistance protein 2); assay: Kidney MRP2 levels in type-1 diabetes induced rats; details: bands, STZ rats, n = 7; control = 100.00
Description: as §3, §4

Compound: chromium histidinate [CrHis]
- Cerebellum GLUT-3 Expression [1]: 166.9 ± 2.2 % Control
- Cortex GLUT-3 Expression [1]: 287.5 ± 31.3 % Control
- Hippocampus GLUT-3 Expression [1]: 177.8 ± 4.7 % Control
- Serum Glucose at 0.5 hrs [2]: 42.6 ± 6.8 mg/dL
- Kidney oct2 [3]: 53.50 ± 1.13^d
- Brain Serotonin [4]: 512 ± 7
- Brain Cr Levels [5]: 21.6 ± 1.7 ng/g
- Brain ins [6]: 47.89 ± 4.67^c
- Kidney oct1 [7]: 50.90 ± 1.71^d
- Initial BW [8]: 195.43 ± 5.94 g
- BW Change [8]: −10.17 ± 3.94^bc %
- Final BW [8]: 176.57 ± 12.27^bc g
- Hippocampus HNE Expression [9]: 140.1 ± 12.0 % Control
- Cerebellum GLUT-1 Expression [10]: 83.0 ± 4.2 % Control
- Cortex GLUT-1 Expression [10]: 99.9 ± 7.3 % Control
- Hippocampus GLUT-1 Expression [10]: 103.7 ± 2.8 % Control
- Brain nfk [11]: 134.24 ± 4.10^b
- Brain Tryptophan [12]: 4.74 ± 0.36^d mcg/g
- Hippocampus Nrf2 Expression [13]: 61.8 ± 1.4 % Control
- cerebral GLUT-3 expression [14]: 49.41 ± 2.39^c
- Kidney nfk [15]: 118.86 ± 1.47^b
- Glucose, Day 4, After [16]: 237
- Glucose, Day 6, After [16]: 349
- Glucose, Day 12, After [16]: 349
- Glucose, Day 21, After [16]: 303
- Glucose, Day 4, Before [16]: 403
- Glucose, Day 6, Before [16]: 330
- Glucose, Day 12, Before [16]: 340
- Glucose, Day 21, Before [16]: 368
- ALP [17]: 442 ± 13^bc U/L
- ALT [17]: 125 ± 12^bc U/L
- AST [17]: 291 ± 24^ab U/L
- Albumin [17]: 2.74 ± 0.06^ab g/dL
- CK [17]: 6745 ± 934^b U/L
- Creatinine [17]: 0.90 ± 0.08^bc mg/dL
- Glucose [17]: 423 ± 15^bc mg/dL
- Insulin [17]: 22.0 ± 0.8^bc μU/mL
- K [17]: 5.57 ± 0.12^b mmol/L
- LDH [17]: 2367 ± 52^b U/L
- Total protein [17]: 6.07 ± 0.12^b g/dL
- Urea [17]: 62.1 ± 2.5^bc mg/dL
- Uric acid [17]: 6.21 ± 0.57^b mg/dL
- Brain Cr [18]: 11.87 ± 0.89^c ng/g
- Serum Cr [18]: 48.64 ± 2.70^c mcg/g
- cerebral GLUT-1 expression [19]: 53.81 ± 3.53^c
- Hippocampus GFAP Expression [20]: 204.9 ± 4.9 % Control
- Kidney mrp2 [21]: 140.21 ± 2.05^b

Compound: [O]=[Zn] [STZ + Zn, zinc oxide]
- Kidney oct2 [3]: 51.38 ± 1.17^d
- Brain ins [6]: 44.08 ± 3.31^c
- Kidney oct1 [7]: 50.02 ± 2.05^d
- Initial BW [8]: 195.43 ± 7.63 g
- BW Change [8]: −9.71 ± 4.03^bc %
- Final BW [8]: 175.71 ± 7.67^bc g
- Brain nfk [11]: 150.59 ± 2.73^b
- Brain Tryptophan [12]: 4.54 ± 0.23^d mcg/g
- cerebral GLUT-3 expression [14]: 43.41 ± 3.53^c
- Kidney nfk [15]: 120.31 ± 1.65^b
- Glucose, Day 4, After [16]: 303
- Glucose, Day 6, After [16]: 372
- Glucose, Day 12, After [16]: 412
- Glucose, Day 21, After [16]: 329
- Glucose, Day 4, Before [16]: 457
- Glucose, Day 6, Before [16]: 350
- Glucose, Day 12, Before [16]: 421
- Glucose, Day 21, Before [16]: 380
- ALP [17]: 453 ± 11^b U/L
- ALT [17]: 143 ± 9^b U/L
- AST [17]: 328 ± 17^a U/L
- Albumin [17]: 2.59 ± 0.06^b g/dL
- CK [17]: 6872 ± 1248^b U/L
- Creatinine [17]: 1.05 ± 0.07^b mg/dL
- Glucose [17]: 456 ± 13^ab mg/dL
- Insulin [17]: 20.9 ± 0.9^bc μU/mL
- K [17]: 5.53 ± 0.09^b mmol/L
- LDH [17]: 2564 ± 85^ab U/L
- Total protein [17]: 5.91 ± 0.07^b g/dL
- Urea [17]: 65.6 ± 1.0^b mg/dL
- Uric acid [17]: 6.49 ± 0.69^ab mg/dL
- Brain Cr [18]: 9.05 ± 0.56^d ng/g
- Serum Cr [18]: 33.65 ± 2.26^d mcg/g
- cerebral GLUT-1 expression [19]: 46.82 ± 3.23^c
- Kidney mrp2 [21]: 148.73 ± 2.74^b

Compound: chromium picolinate [CrPic]
- Cerebellum GLUT-3 Expression [1]: 206.3 ± 6.4 % Control
- Cortex GLUT-3 Expression [1]: 319.5 ± 14.6 % Control
- Hippocampus GLUT-3 Expression [1]: 198.6 ± 8.9 % Control
- Serum Glucose at 0.5 hrs [2]: 40.7 ± 5.2 mg/dL
- Hippocampus HNE Expression [9]: 162.5 ± 12.4 % Control
- Cerebellum GLUT-1 Expression [10]: 75.6 ± 7.6 % Control
- Cortex GLUT-1 Expression [10]: 122.8 ± 1.3 % Control
- Hippocampus GLUT-1 Expression [10]: 102.3 ± 5.5 % Control
- Hippocampus Nrf2 Expression [13]: 38.9 ± 3.6 % Control
- Hippocampus GFAP Expression [20]: 251.2 ± 9.1 % Control
